According to patent publication US20170190671A1, “BIS(ARYL)CATECHOL DERIVATIVES AS HERBICIDES” (E I DU PONT DE NEMOURS AND COMPANY, priority 2014, published 2017):

Tests used:
Test in all cases: Test C preemergence
Assay type in all cases: in vivo
[1] = system: Italian ryegrass (Lolium multiflorum); conditions: Lolium multiflorum, pre-emergence, 336 h, scale 0 to 100, read-out: Plant response rating, Ryegrass, Italian
Method in brief: (§1)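 Greenhouse test; preemergence on seeded loam-sand soil or spray on 1- to 4-leaf plants; solvent + surfactant vehicle; 13-15 day hold; visual comparison with controls; 0 (no effect)-100 (complete control).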

[2] = system: barnyardgrass (Echinochloa crus-galli); conditions: Echinochloa crus-galli, pre-emergence, read-out: Plant response rating, Barnyardgrass
Method in brief: as §1

[3] = system: blackgrass (Alopecurus myosuroides); conditions: Alopecurus myosuroides, pre-emergence, 336 h, scale 0 to 100, read-out: Plant response rating, Blackgrass
Method in brief: as §1

[4] = system: corn (Zea mays); conditions: Zea mays, pre-emergence, 336 h, scale 0 to 100
Method in brief: as §1

[5] = system: galium (catchweed bedstraw, Galium aparine); conditions: Galium, pre-emergence, 336 h, scale 0 to 100, read-out: Plant response rating, Galium
Method in brief: as §1

[6] = system: giant foxtail (Setaria faberii); conditions: Setaria faberi, pre-emergence, 336 h, scale 0 to 100, read-out: Plant response rating, Foxtail, Giant
Method in brief: as §1

[7] = system: lambsquarters (Chenopodium album); conditions: Chenopodium album, pre-emergence, 336 h, scale 0 to 100, read-out: Plant response rating, Lambsquarters
Method in brief: as §1

[8] = system: large (Lg) crabgrass (Digitaria sanguinalis); conditions: Digitaria sanguinalis, pre-emergence, 336 h, scale 0 to 100, read-out: Plant response rating, Crabgrass, Large
Method in brief: as §1

[9] = system: oilseed rape (Brassica napus); conditions: Brassica napus, pre-emergence, scale 0 to 100, read-out: Plant response rating, Oilseed Rape
Method in brief: as §1

[10] = system: ragweed (common ragweed, Ambrosia elatior); conditions: Ambrosia artemisiifolia, pre-emergence, 336 h, scale 0 to 100, read-out: Plant response rating, Ragweed
Method in brief: as §1

[11] = system: soybean (Glycine max); conditions: Glycine max, pre-emergence, scale 0 to 100, read-out: Plant response rating, Soybean
Method in brief: as §1

[12] = system: velvetleaf (Abutilon theophrasti); conditions: Abutilon theophrasti, pre-emergence, scale 0 to 100, read-out: Plant response rating, Velvetleaf
Method in brief: as §1

[13] = system: waterhemp (common waterhemp, Amaranthus rudis); conditions: Amaranthus tuberculatus, pre-emergence, scale 0 to 100, read-out: Plant response rating, Waterhemp
Method in brief: as §1

[14] = system: winter wheat (Triticum aestivum); conditions: Triticum aestivum, pre-emergence, 336 h, scale 0 to 100, read-out: Plant response rating, Wheat
Method in brief: as §1

[15] = system: yellow nutsedge (Cyperus esculentus); conditions: Cyperus, pre-emergence, 336 h, scale 0 to 100, read-out: Plant response rating, Nutsedge, Yellow
Method in brief: as §1

FC(F)c1cccc(Oc2ncc(Cl)cn2)c1Oc1ncc(Cl)cn1 [Compound 46, 2,2′-[[3-(difluoromethyl)-1,2-phenylene]bis(oxy)]bis[5-chloropyrimidine]]
pest or weed control at 31 g/ha ([1]; 31 g ai/ha, preemergence): 25% | pest or weed control at 62 g/ha ([1]; 62 g ai/ha, preemergence): 95% | pest or weed control at 125 g/ha ([1]; 125 g ai/ha, preemergence): 100% | pest or weed control at 16 g/ha ([1]; Preemergence, 16 g ai/ha): 0% | pest or weed control at 31 g/ha ([2]; 31 g ai/ha, preemergence, scale 0 to 100): 70% | pest or weed control at 62 g/ha ([2]; 62 g ai/ha, preemergence, scale 0 to 100): 100% | pest or weed control at 125 g/ha ([2]; 125 g ai/ha, preemergence, scale 0 to 100): 100% | pest or weed control at 16 g/ha ([2]; Preemergence, 16 g ai/ha, scale 0 to 100 (0 no effect, 100 complete control)): 15% | pest or weed control at 31 g/ha ([3]; 31 g ai/ha, preemergence): 70% | pest or weed control at 62 g/ha ([3]; 62 g ai/ha, preemergence): 95% | pest or weed control at 125 g/ha ([3]; 125 g ai/ha, preemergence): 95% | pest or weed control at 16 g/ha ([3]; Preemergence, 16 g ai/ha): 0% | Corn plant response rating (crop injury, 0 = no effect, 100 = complete kill) at 31 g/ha ([4]; 31 g ai/ha, preemergence): 25% | Corn plant response rating (crop injury, 0 = no effect, 100 = complete kill) at 62 g/ha ([4]; 62 g ai/ha, preemergence): 25% | Corn plant response rating (crop injury, 0 = no effect, 100 = complete kill) at 125 g/ha ([4]; 125 g ai/ha, preemergence): 90% | Corn plant response rating (crop injury, 0 = no effect, 100 = complete kill) at 16 g/ha ([4]; Preemergence, 16 g ai/ha): 10% | pest or weed control at 31 g/ha ([5]; 31 g ai/ha, preemergence): 85% | pest or weed control at 62 g/ha ([5]; 62 g ai/ha, preemergence): 95% | pest or weed control at 125 g/ha ([5]; 125 g ai/ha, preemergence): 100% | pest or weed control at 16 g/ha ([5]; Preemergence, 16 g ai/ha): 5% | pest or weed control at 31 g/ha ([6]; 31 g ai/ha, preemergence): 100% | pest or weed control at 62 g/ha ([6]; 62 g ai/ha, preemergence): 100% | pest or weed control at 125 g/ha ([6]; 125 g ai/ha, preemergence): 100% | pest or weed control at 16 g/ha ([6]; Preemergence, 16 g ai/ha): 75% | pest or weed control at 31 g/ha ([7]; 31 g ai/ha, preemergence): 100% | pest or weed control at 62 g/ha ([7]; 62 g ai/ha, preemergence): 100% | pest or weed control at 125 g/ha ([7]; 125 g ai/ha, preemergence): 100% | pest or weed control at 16 g/ha ([7]; Preemergence, 16 g ai/ha): 75% | pest or weed control at 31 g/ha ([8]; 31 g ai/ha, preemergence): 100% | pest or weed control at 62 g/ha ([8]; 62 g ai/ha, preemergence): 100% | pest or weed control at 125 g/ha ([8]; 125 g ai/ha, preemergence): 100% | pest or weed control at 16 g/ha ([8]; Preemergence, 16 g ai/ha): 100% | plant injury at 31 g/ha ([9]; 31 g ai/ha, preemergence): 90% | plant injury at 62 g/ha ([9]; 62 g ai/ha, preemergence): 98% | plant injury at 125 g/ha ([9]; 125 g ai/ha, preemergence): 100% | plant injury at 16 g/ha ([9]; Preemergence, 16 g ai/ha): 65% | pest or weed control at 31 g/ha ([10]; 31 g ai/ha, preemergence): 25% | pest or weed control at 62 g/ha ([10]; 62 g ai/ha, preemergence): 35% | pest or weed control at 125 g/ha ([10]; 125 g ai/ha, preemergence): 100% | pest or weed control at 16 g/ha ([10]; Preemergence, 16 g ai/ha): 0% | plant injury at 31 g/ha ([11]; 31 g ai/ha, preemergence): 40% | plant injury at 62 g/ha ([11]; 62 g ai/ha, preemergence): 65% | plant injury at 125 g/ha ([11]; 125 g ai/ha, preemergence): 95% | plant injury at 16 g/ha ([11]; Preemergence, 16 g ai/ha): 10% | pest or weed control at 31 g/ha ([12]; 31 g ai/ha, preemergence): 100% | pest or weed control at 62 g/ha ([12]; 62 g ai/ha, preemergence): 95% | pest or weed control at 125 g/ha ([12]; 125 g ai/ha, preemergence): 100% | pest or weed control at 16 g/ha ([12]; Preemergence, 16 g ai/ha): 25% | pest or weed control at 31 g/ha ([13]; 31 g ai/ha, preemergence): 100% | pest or weed control at 62 g/ha ([13]; 62 g ai/ha, preemergence): 100% | pest or weed control at 125 g/ha ([13]; 125 g ai/ha, preemergence): 100% | pest or weed control at 16 g/ha ([13]; Preemergence, 16 g ai/ha): 75% | plant injury at 31 g/ha ([14]; 31 g ai/ha, preemergence): 5% | plant injury at 62 g/ha ([14]; 62 g ai/ha, preemergence): 5% | plant injury at 125 g/ha ([14]; 125 g ai/ha, preemergence): 50% | plant injury at 16 g/ha ([14]; Preemergence, 16 g ai/ha): 0% | pest or weed control at 31 g/ha ([15]; 31 g ai/ha, preemergence): 35% | pest or weed control at 62 g/ha ([15]; 62 g ai/ha, preemergence): 55% | pest or weed control at 125 g/ha ([15]; 125 g ai/ha, preemergence): 80% | pest or weed control at 16 g/ha ([15]; Preemergence, 16 g ai/ha): 0%
